We go through 13 compounds from ChEMBL document CHEMBL5291721, “A preclinical secondary pharmacology resource illuminates target-adverse drug reaction associations of marketed drugs” (Nat Commun, 2023).

Where only a bound is given, the exact number is not on record here.

One assay has as its target T1, Adenosine receptor A1 (Homo sapiens, UniProt P30542).
T1 sequence (P30542 whole entry): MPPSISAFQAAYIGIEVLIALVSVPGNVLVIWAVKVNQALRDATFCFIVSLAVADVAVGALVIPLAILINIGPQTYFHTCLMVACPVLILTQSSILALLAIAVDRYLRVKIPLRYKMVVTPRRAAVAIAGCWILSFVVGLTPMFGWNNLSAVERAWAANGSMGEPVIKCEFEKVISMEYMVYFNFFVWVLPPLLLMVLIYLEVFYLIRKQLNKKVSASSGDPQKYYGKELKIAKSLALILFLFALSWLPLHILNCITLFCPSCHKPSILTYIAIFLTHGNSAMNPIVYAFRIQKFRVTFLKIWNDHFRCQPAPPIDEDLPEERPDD

In assay [1] the target is T2, Alpha-2A adrenergic receptor (Homo sapiens, UniProt P08913).
T2 sequence (P08913 whole entry): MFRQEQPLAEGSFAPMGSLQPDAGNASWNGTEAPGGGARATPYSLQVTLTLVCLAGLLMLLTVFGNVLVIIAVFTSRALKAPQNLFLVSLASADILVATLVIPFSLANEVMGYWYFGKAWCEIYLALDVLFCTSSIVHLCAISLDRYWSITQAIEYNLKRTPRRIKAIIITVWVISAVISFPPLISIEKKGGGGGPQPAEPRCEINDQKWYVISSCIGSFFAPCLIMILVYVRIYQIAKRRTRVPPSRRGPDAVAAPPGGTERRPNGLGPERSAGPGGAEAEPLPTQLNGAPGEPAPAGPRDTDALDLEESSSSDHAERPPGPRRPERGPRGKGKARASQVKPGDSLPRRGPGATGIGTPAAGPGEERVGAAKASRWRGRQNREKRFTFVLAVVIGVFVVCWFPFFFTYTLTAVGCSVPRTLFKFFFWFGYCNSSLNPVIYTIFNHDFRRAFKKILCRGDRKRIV
The format is functional, cell-based.

Assay [2] has as its target Beta-2 adrenergic receptor (Homo sapiens, UniProt P07550).
Assay [3] has as its target T3, Type-1 angiotensin II receptor (Homo sapiens, UniProt P30556).
T3 sequence (P30556 whole entry): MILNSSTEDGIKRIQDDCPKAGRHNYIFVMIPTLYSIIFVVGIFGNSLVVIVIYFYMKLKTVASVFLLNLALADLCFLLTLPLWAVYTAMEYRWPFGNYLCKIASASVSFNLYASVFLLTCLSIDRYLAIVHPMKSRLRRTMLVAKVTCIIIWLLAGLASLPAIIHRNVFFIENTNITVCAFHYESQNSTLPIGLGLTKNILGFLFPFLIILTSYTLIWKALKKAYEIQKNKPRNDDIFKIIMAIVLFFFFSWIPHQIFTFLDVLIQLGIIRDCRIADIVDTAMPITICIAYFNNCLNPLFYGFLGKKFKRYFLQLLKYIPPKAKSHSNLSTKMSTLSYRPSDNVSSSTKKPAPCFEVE

Assay [4] concerns the target T4, Muscarinic acetylcholine receptor M2 (Homo sapiens, UniProt P08172).
T4 sequence (P08172 whole entry): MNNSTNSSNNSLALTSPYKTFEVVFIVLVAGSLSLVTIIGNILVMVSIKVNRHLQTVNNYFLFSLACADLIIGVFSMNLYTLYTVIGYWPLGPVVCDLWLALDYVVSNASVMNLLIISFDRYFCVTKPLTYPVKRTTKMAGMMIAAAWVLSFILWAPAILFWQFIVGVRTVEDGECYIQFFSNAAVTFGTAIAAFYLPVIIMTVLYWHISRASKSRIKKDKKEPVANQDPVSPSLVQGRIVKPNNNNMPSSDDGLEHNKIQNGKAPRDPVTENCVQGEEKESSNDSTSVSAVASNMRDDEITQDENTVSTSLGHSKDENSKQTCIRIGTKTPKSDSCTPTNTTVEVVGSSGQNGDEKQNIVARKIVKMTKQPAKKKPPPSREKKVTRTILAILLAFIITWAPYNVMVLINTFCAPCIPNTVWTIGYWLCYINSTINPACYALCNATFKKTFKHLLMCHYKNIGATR
Format: functional, cell-based.

For a further assay, the target named is Cannabinoid receptor 1 (Homo sapiens, UniProt P21554). The format is functional, cell-based.
Assay [5] has as its target 5-hydroxytryptamine receptor 2B (Homo sapiens, UniProt P41595). Format: functional, cell-based.
Another assay deals with T5, Glucocorticoid receptor (Homo sapiens, UniProt P04150).
T5 sequence (P04150 whole entry): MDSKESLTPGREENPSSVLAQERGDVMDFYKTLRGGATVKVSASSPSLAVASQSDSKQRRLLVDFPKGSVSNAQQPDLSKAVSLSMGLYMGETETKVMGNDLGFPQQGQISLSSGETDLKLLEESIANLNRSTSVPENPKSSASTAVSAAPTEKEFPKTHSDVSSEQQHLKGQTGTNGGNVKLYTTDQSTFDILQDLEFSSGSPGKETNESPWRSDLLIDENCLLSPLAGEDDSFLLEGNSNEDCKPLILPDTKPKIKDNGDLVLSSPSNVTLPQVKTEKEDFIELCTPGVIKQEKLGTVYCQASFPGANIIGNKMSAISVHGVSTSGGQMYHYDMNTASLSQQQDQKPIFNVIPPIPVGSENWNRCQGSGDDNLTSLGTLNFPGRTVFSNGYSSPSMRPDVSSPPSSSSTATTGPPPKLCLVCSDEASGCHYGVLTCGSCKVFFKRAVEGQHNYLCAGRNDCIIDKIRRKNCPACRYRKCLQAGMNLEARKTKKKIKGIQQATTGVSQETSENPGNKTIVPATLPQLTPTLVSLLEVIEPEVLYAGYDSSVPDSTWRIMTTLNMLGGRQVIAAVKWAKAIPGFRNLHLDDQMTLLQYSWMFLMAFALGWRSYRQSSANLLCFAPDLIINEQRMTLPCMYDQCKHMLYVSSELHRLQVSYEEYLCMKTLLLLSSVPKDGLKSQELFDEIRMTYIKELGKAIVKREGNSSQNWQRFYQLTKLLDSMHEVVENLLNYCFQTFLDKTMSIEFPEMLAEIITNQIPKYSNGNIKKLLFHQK

The target of assay [6] is Sodium-dependent dopamine transporter (Homo sapiens, UniProt Q01959).
Also: assay procedure not described here.

Sequence of 5-hydroxytryptamine receptor 2B (P41595 whole entry): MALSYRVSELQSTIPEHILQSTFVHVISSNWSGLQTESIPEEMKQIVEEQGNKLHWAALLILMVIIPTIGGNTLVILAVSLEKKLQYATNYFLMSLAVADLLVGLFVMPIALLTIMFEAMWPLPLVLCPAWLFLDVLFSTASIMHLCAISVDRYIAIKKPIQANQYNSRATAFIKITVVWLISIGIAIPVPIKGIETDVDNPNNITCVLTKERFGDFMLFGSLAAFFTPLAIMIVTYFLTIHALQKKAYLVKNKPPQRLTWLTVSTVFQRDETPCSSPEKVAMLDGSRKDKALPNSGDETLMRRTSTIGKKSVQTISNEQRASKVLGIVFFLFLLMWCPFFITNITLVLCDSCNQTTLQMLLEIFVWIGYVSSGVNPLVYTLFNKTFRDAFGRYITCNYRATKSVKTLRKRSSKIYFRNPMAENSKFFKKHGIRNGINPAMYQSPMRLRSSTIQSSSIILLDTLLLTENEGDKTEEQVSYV
Sequence of Beta-2 adrenergic receptor (P07550 whole entry): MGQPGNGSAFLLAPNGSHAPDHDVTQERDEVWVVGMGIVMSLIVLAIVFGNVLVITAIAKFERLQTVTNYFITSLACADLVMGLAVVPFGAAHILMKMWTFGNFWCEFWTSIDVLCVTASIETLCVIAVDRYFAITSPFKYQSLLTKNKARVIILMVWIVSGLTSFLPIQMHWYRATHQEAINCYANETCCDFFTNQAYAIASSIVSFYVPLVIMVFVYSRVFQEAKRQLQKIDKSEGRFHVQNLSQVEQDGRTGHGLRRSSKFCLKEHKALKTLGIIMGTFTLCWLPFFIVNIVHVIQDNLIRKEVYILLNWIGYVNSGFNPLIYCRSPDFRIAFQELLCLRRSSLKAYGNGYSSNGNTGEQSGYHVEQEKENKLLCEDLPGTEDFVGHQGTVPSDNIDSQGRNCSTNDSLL
Sequence of Sodium-dependent dopamine transporter (Q01959 whole entry): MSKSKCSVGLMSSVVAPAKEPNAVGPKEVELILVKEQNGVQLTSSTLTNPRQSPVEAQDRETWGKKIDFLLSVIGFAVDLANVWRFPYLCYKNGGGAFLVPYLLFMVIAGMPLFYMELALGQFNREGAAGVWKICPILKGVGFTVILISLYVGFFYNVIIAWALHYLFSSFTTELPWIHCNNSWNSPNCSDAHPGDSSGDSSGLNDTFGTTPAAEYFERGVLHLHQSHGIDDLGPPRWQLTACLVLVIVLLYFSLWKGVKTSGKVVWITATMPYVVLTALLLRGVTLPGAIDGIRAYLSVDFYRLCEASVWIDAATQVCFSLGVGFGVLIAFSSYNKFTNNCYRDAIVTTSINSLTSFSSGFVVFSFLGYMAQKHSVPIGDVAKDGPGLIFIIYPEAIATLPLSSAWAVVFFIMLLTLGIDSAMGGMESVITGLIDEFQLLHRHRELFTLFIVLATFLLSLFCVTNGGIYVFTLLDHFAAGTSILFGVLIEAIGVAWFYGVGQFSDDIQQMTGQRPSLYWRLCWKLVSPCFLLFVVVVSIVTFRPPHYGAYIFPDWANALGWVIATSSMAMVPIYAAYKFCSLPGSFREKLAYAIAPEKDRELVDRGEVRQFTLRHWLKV
Sequence of Cannabinoid receptor 1 (P21554 whole entry): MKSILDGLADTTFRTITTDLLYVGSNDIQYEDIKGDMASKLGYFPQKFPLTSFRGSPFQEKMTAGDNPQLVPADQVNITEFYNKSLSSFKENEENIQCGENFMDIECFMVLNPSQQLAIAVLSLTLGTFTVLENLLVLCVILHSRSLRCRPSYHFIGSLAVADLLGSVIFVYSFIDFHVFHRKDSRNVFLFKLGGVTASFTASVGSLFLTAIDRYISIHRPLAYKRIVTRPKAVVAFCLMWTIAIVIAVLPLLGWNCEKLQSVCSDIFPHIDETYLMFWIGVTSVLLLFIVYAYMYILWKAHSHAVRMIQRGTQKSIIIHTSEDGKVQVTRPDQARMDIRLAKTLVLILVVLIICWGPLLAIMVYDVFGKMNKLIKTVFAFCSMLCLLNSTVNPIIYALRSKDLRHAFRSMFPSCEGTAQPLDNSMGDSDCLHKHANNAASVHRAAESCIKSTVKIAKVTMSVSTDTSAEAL

`COc1ccc(CCN(C)CCCC(C#N)(c2cc(OC)c(OC)c(OC)c2)C(C)C)cc1OC` (configuration not stated) [GALLOPAMIL]: the AC50 (on Adenosine receptor A1; in assay [1]; in assay [2]; in [3]; in assay [4]; at Cannabinoid receptor 1) was over 30 µM in each case. Moreover, the AC50 in [5] was 0.86 µM; at Glucocorticoid receptor, over 30 µM; in [6] it was over 30 µM.
Take `CC=CC(=O)N(CC)c1ccccc1C`: the concentration at half-maximal activity (AC50) on Adenosine receptor A1 was over 10 µM; in assay [1], over 10 µM; in assay [2], over 10 µM; in assay [3] it was over 10 µM; in assay [4], over 10 µM; on Cannabinoid receptor 1 it was over 30 µM. Moreover, the AC50 (in assay [5]; on Glucocorticoid receptor; in [6]) was over 10 µM throughout.
Regarding `COc1ccc2c3c1O[C@H]1C(=O)CC[C@@]4(O)[C@@H](C2)N(C)CC[C@]314` [OXYCODONE], the half-maximal activity concentration (AC50) (at Adenosine receptor A1; in [1]; in assay [2]; in assay [3]; in [4]; on Cannabinoid receptor 1) was over 30 µM in each case. In addition, the AC50 (in [5]; on Glucocorticoid receptor; in assay [6]) was over 30 µM in each case.
As for `CC1(C)O[C@@H]2C[C@H]3[C@@H]4CCC5=CC(=O)C=C[C@]5(C)[C@H]4[C@@H](O)C[C@]3(C)[C@]2(C(=O)CO)O1` [DESONIDE], the AC50 was over 10 µM on Adenosine receptor A1; over 10 µM in assay [1]; over 10 µM in assay [2]; over 30 µM in assay [3]; over 10 µM in assay [4]; over 30 µM at Cannabinoid receptor 1. The AC50 in assay [5] was over 10 µM; at Glucocorticoid receptor it was 0.016 µM; in [6], over 10 µM.
Take `CN1CCC(=C2c3ccccc3CCc3sccc32)CC1` [PIZOTYLINE]: the AC50 on Adenosine receptor A1 is over 30 µM; in [1], over 30 µM; in [2] it was 5.8 µM; in assay [3], over 30 µM; in [4], 0.123 µM; on Cannabinoid receptor 1 it was over 30 µM. In addition, the values for the AC50 (in assay [5]; on Glucocorticoid receptor; in assay [6]) were 0.0279 µM, over 30 µM and 13.4 µM, respectively.
Consider `O=C(O)CCCCCCNC1c2ccccc2CCc2ccccc21` [AMINEPTINE], for which the AC50 (on Adenosine receptor A1; in assay [1]; in [2]; in [3]; in assay [4]; on Cannabinoid receptor 1) was over 30 µM in each case. In addition, the AC50 was over 30 µM in [5], over 30 µM on Glucocorticoid receptor and 1.5 µM in assay [6].
As for `CCOC(=O)OC(C)OC1=C(C(=O)Nc2ccccn2)N(C)S(=O)(=O)c2ccccc21` (configuration not stated) [AMPIROXICAM], the AC50 (on Adenosine receptor A1; in [1]; in assay [2]; in [3]; in assay [4]; at Cannabinoid receptor 1) was over 30 µM in each case. Moreover, the figures for the AC50 (in assay [5]; at Glucocorticoid receptor; in [6]) were 10 µM, over 30 µM and over 30 µM, respectively.
Consider `CN1C(=O)OC(C)(C)C1=O` [TRIMETHADIONE], for which the AC50 was over 10 µM at Adenosine receptor A1; over 10 µM in assay [1]; over 10 µM in assay [2]; over 10 µM in assay [3]; over 10 µM in assay [4]; over 30 µM at Cannabinoid receptor 1. The AC50 (in assay [5]; at Glucocorticoid receptor; in assay [6]) was over 10 µM throughout.
As for `C#C[C@]1(O)CC[C@H]2[C@@H]3CCC4=Cc5oncc5C[C@]4(C)[C@H]3CC[C@@]21C` [DANAZOL], the half-maximal activity concentration (AC50) on Adenosine receptor A1 is over 30 µM; in assay [1] it was over 10 µM; in [2], over 10 µM; in [3], over 10 µM; in assay [4] it was over 10 µM; at Cannabinoid receptor 1, over 30 µM. For the same compound, the AC50 in assay [5] was over 10 µM; at Glucocorticoid receptor, 0.111 µM; in assay [6] it was over 10 µM.
As for `C=CCN1CCCC1CNC(=O)c1cc(S(N)(=O)=O)cc(OC)c1OC` (configuration not stated) [VERALIPRIDE], the AC50 (on Adenosine receptor A1; in assay [1]; in assay [2]; in [3]; in [4]; at Cannabinoid receptor 1) was over 30 µM in each case. Further, the AC50 (in assay [5]; on Glucocorticoid receptor; in assay [6]) was over 30 µM in each case.
For the compound `OC(CNCC(O)C1CCc2cc(F)ccc2O1)C1CCc2cc(F)ccc2O1` (configuration not stated) [NEBIVOLOL], the AC50 was over 30 µM at Adenosine receptor A1; over 30 µM in assay [1]; 0.07 µM in [2]; over 30 µM in [3]; over 10 µM in [4]; over 30 µM on Cannabinoid receptor 1. Besides, the concentration at half-maximal activity (AC50) in assay [5] was 8.8 µM; at Glucocorticoid receptor, over 30 µM; in [6], 3.2 µM.
On to `CC(=O)OCC(=O)[C@@]12N=C(C)O[C@@H]1C[C@H]1[C@@H]3CCC4=CC(=O)C=C[C@]4(C)[C@H]3[C@@H](O)C[C@@]12C` [DEFLAZACORT], for which the AC50 (at Adenosine receptor A1; in [1]; in assay [2]; in [3]; in assay [4]; at Cannabinoid receptor 1) was over 30 µM throughout. Also, the AC50 in [5] was over 30 µM; at Glucocorticoid receptor, 0.66 µM; in assay [6], over 30 µM.
As for `CCCCc1ncc(/C=C(\Cc2cccs2)C(=O)O)n1Cc1ccc(C(=O)O)cc1` [EPROSARTAN], the AC50 at Adenosine receptor A1 is over 10 µM; in assay [1], over 10 µM; in assay [2] it was over 10 µM; in assay [3], 0.0019 µM; in assay [4] it was over 10 µM; at Cannabinoid receptor 1, over 30 µM. For the same compound, the AC50 is over 10 µM in [5], over 30 µM at Glucocorticoid receptor and over 30 µM in assay [6].

In general, AC50 refers to the midpoint of the concentration-response curve, whichever way the signal moves. A lower AC50 goes with greater potency.
